Structures can show the parent of a compound that is named as a salt.
What was measured:
[1] = molecular target: type IV phosphodiesterase; experiment: Type IV phosphodiesterase inhibiting activity; type: biochemical, human; settings: U937 type IV phosphodiesterase fraction, 0.28 μM cAMP, pH 7.5, 30° C., 30 minutes; read-out: PDEIV-IC50
Description: The following assay was used to evaluate the ability of the compound of the present invention to suppress type IV phosphodiesterase, according to Biochemical. Pharmacol. 48 (6), 1219-1223 (1994).
1) Type IV phosphodiesterase activity fractions were prepared as follows. Namely, human histiocytic lymphoma cell line U937 was cultured in an RPMI1640 medium containing 10% fetal calf serum to obtain 10^9 cells of U937. The cells were recovered by centrifugation and suspended in 40 ml of buffer A (20 mM bis-tris, 5 mM 2-mercaptoethanol, 2 mM benzamidine, 2 mM EDTA, 0.1 mM 4-(2-aminoethyl)benzensulfonyl hydrochloride, 50 mM sodium acetate, pH=6.5). The cells were broken by a sonication and centrifuged (4° C., 10,000 G, 10 minutes) to obtain a supernatant. This was filtered by a 0.45 μm filter to obtain the soluble fraction.
2) The soluble fraction obtained was applied into a 1×10 cm DEAE Sepharose column equalibrated with the buffer A. 120 ml of the buffer A containing a linear gradient solution of 0.05 to 1M sodium acetate was used to separate the phosphodiesterase and recover 24 5-ml fractions. Each of the fractions was measured for the cAMP phosphodiesterase activity.
3) The test compound was reacted at a desired concentration in a reaction mixture containing 20 mM tris-HCl (pH 7.5), 1 mM MgCl2, 100 μM EDTA, 330 μg/ml calf serum albumin, 10 μg/ml 5'-nucleotidase, 0.4 μCi ^3 H-cAMP (0.28 μM cAMP) and the type IV phosphodiesterase stored solution at 30° C. for 30 minutes. QAE-Sephadex suspended in 10 mM of hepes-Na (pH -7.0) was added to the reaction mixture which was then allowed to stand for 5 minutes, then the supernatant was obtained, QAE-Sephadex was further added, to the supernatant, and was allowed to stand for 5 minutes, then the supernatant was obtained and measured for radioactivity.

[2] = system: TNF-α production by LPS stimulated macrophages; experiment: TNF-α production inhibitory activity by LPS stimulated macrophages; type: cell-based; settings: Macrophage, BALB/c mouse peritoneal macrophages, cultured for 8 hours, ELISA
Description: The following assay was used to evaluate the ability of the compound of the present invention to suppress TNF-α production by LPS stimulated macrophages according to Immunopharmacol. 29, 121-127 (1995).
1) 6 to 10 week old female BALB/c mice were used, 2 ml portions of thioglycolate were intraperitoneally administered, and the abdominal cavities were washed by 10 ml of PBS after 4 days, whereby 1 to 2×10^7 peritoneal cells were obtained per mouse. These were suspended in a hemocyte solution (0.75% ammonium chloride, 17 mM tris-hydrochlorate buffer, pH7.2), centrifuged, then resuspended in an RPMI1640 medium including 10% fetal calf serum and seeded in a 96-well cell culture plate at a density of 1×10^5 cells/50 μl/well. Since these cells adhered strongly to the tissue culture plate and were positive in nonspecific esterase staining, they were used for the test as mouse peritoneal macrophages. Mouse peritoneal macrophages were precultured overnight at 37° C. in […] for the experiment.
2) E. Coli (serum type 055:B5) derived LPS was dissolved in PBS in a concentration of 1 mg/ml, then sterilized by filtration. The test compound was dissolved in DMSO to make a 1000-fold concentration solution of the final concentration of use. 10 μl of the above LPS stock solution (final concentration 10 μg/ml) and 1 μl of the tested substance stock solution were added and mixed in 0.5 ml of RPMI1640 medium containing 10% fetal calf serum. This was added to the above cells at 50 μl/well and cultured for 8 hours. The cultured supernatant was recovered from each well and the TNF-α concentration was measured by the ELISA method (Cytoscreen® Immunoassay Kit Mouse TNF-α, BioSourse International).
The comparative example was the compound described in WO-A-97-04775, Example 1, mentioned above.

| IC50 [1] [nM] | IC50 [2] [nM] | Structure (SMILES) |
| --- | --- | --- |
| 720 | 1800 | CO[C@H]1CC[C@H](n2cc(C(=O)Nc3ccncc3)c(=O)c3cccnc32)CC1 [Example 126, N-(4-pyridyl)-1-(trans-4-methoxycyclohexyl)-1,4-dihydro[1,8]naphthylidin-4-one-3-carboxamide] |
| 3300 | – | Cc1cc(NC(=O)c2cn([C@H]3CC[C@H](O)CC3)c3ncccc3c2=O)on1 [Example 178, N-(3-methylisoxazol-5-yl)-1-(trans-4-hydroxycyclohexyl)-1,4-dihydro[1,8]naphthylidin-4-one-3-carboxamide] |
| 4.5 | – | O=C(O[C@H]1CC[C@H](n2cc(C(=O)Nc3c(Cl)cncc3Cl)c(=O)c3cccnc32)CC1)c1ccc(CN2CCOCC2)cc1 [Example 135, trans-4-[3-{[(3,5-dichloro-4-pyridinyl)amino]carbonyl}-4-oxo[1,8]naphthylidin-1(4H)-yl]cyclohexyl 4-(morpholinomethyl)benzoate hydrochloride] |
| – | 100 | COc1ccc(C2CNC(=O)C2)cc1OC1CCCC1 (centres unmarked) [Rolipram, reference compound] |
| 150 | – | O=C(Nc1cccnc1)c1cn(C2CC2)c2ncccc2c1=O [Example 156, N-(3-pyridyl)-1-cyclopropyl-1,4-dihydro[1,8]naphthylidin-4-one-3-carboxamide] |
| 8.3 | – | O=C(Nc1c(Cl)cncc1Cl)c1cn(C2CCC2)c2ncccc2c1=O [Example 145, N-(3,5-dichloropyridin-4-yl)-1-cyclobutyl-1,4-dihydro[1,8]naphthylidin-4-one-3-carboxamide] |
| 130 | – | Cc1cnccc1NC(=O)c1cn([C@H]2CC[C@H](O)CC2)c2ncccc2c1=O [Example 174, N-(3-methylpyridin-4-yl)-1-(trans-4-hydroxycyclohexyl)-1,4-dihydro[1,8]naphthylidin-4-one-3-carboxamide] |
| 6.2 | – | CC(=O)O[C@H]1CC[C@H](n2cc(C(=O)Nc3c(Cl)cncc3Cl)c(=O)c3cccnc32)CC1 [Example 197, trans-4-[3-{[(3,5-dichloropyridin-4-yl)amino]carbonyl}-1,4-dihydro[1,8]naphthylidin-1-yl]cyclohexyl acetate] |

Continued, compound first:

| Structure (SMILES) | IC50 [1] [nM] | IC50 [2] [nM] |
| --- | --- | --- |
| NC(=O)N1CC[C@H](n2cc(C(=O)Nc3c(Cl)cncc3Cl)c(=O)c3cccnc32)C1 [Example 20, (S)-N-(3,5-dichloropyridin-4-yl)-1-(1-aminocarbonylpyrrolidin-3-yl)-1,4-dihydro[1,8]naphthylidin-4-one-3-carboxamide] | 12 | 3000 |
| CCNC(=O)N1CCC(n2cc(C(=O)Nc3c(Cl)cncc3Cl)c(=O)c3cccnc32)CC1 [Example 27, N-(3,5-dichloropyridin-4-yl)-1-(1-ethylaminocarbonylpiperidin-4-yl)-1,4-dihydro[1,8]naphthylidin-4-one-3-carboxamide] | 1.3 | 10 |
| O=C(Nc1c(Cl)cncc1Cl)c1cn([C@H]2CC[C@@H](O)CC2)c2ncccc2c1=O [Example 119, N-(3,5-dichloropyridin-4-yl)-1-(cis-4-hydroxycyclohexyl)-1,4-dihydro[1,8]naphthylidin-4-one-3-carboxamide] | 1 | 0.04 |
| CC(=O)N1CCC(n2cc(C(=O)Nc3c(Cl)cncc3Cl)c(=O)c3cccnc32)CC1 [Example 28, N-(3,5-dichloropyridin-4-yl)-1-(1-acetylpiperidin-4-yl)-1,4-dihydro[1,8]naphthylidin-4-one-3-carboxamide] | 7.8 | 100 |
| CN(C)C(=O)[C@@H]1C[C@H](n2cc(C(=O)Nc3c(Cl)cncc3Cl)c(=O)c3cccnc32)CN1C(=O)OCc1ccccc1 [Example 92, N-(3,5-dichloropyridin-4-yl)-1-[(3S,5S)-(1-benzyloxycarbonyl-5-dimethylaminocarbonyl)pyrrolidin-3-yl]-1,4-dihydro[1,8]naphthylidin-4-one-3-carboxamide] | 2.1 | 70 |
| O=CN1CCC(n2cc(C(=O)Nc3c(Cl)cncc3Cl)c(=O)c3cccnc32)CC1 [Example 48, N-(3,5-dichloropyridin-4-yl)-1-(1-formylpiperidin-4-yl)-1,4-dihydro[1,8]naphthylidin-4-one-3-carboxamide] | 4.8 | 1500 |
| O=C(Nc1c(Cl)cncc1Cl)c1cn(N2CCOCC2)c2ncccc2c1=O [Example 107, N-(3,5-dichloropyridin-4-yl)-1-(1-morpholino)-1,4-dihydro[1,8]naphthylidin-4-one-3-carboxamide] | 0.4 | 3 |
| O=C(Nc1ccncc1)c1cn([C@H]2CCOC2)c2ncccc2c1=O [Example 43, N-(4-pyridyl)-1-[(S)-tetrahydro-3-furanyl]-1,4-dihydro[1,8]naphthylidin-4-one-3-carboxamide] | 190 | 2500 |
| CCNC(=O)N1CC[C@H](n2cc(C(=O)Nc3c(Cl)cncc3Cl)c(=O)c3cccnc32)C1 [Example 18, (S)-N-(3,5-dichloropyridin-4-yl)-1-(1-ethylaminocarbonylpyrrolidin-3-yl)-1,4-dihydro[1,8]naphthylidin-4-one-3-carboxamide] | 4.7 | 1 |
| COC(=O)N1CC(n2cc(C(=O)Nc3ccncc3)c(=O)c3cccnc32)C1 [Example 33, N-(4-pyridyl)-1-(1-methoxycarbonylazetidin-3-yl)-1,4-dihydro[1,8]naphthylidin-4-one-3-carboxamide] | 2000 | 5000 |
| O=C(Nc1c(Cl)cncc1Cl)c1cn(C2CCNCC2)c2ncccc2c1=O [Example 47, N-(3,5-dichloropyridin-4-yl)-1-(4-piperidyl)-1,4-dihydro[1,8]naphthylidin-4-one-3-carboxamide hydrochloride] | 40 | 800 |
| O=C(Nc1c(Cl)cncc1Cl)c1cn(C2CCN(Cc3ccccc3)CC2)c2ncccc2c1=O [Example 46, N-(3,5-dichloropyridin-4-yl)-1-(benzylpiperidin-4-yl)-1,4-dihydro[1,8]naphthylidin-4-one-3-carboxamide] | 13 | 500 |
| O=C(Nc1ccncc1)c1cn([C@H]2CC[C@H](O)CC2)c2ncccc2c1=O [Example 113, N-(4-pyridyl)-1-(trans-4-hydroxycyclohexyl)-1,4-dihydro[1,8]naphthylidin-4-one-3-carboxamide] | 400 | 300 |
| O=C(Nc1ccncc1)c1cn(C2CCSCC2)c2ncccc2c1=O [Example 100, N-(4-pyridyl)-1-(4-tetrahydrothiopyranyl)-1,4-dihydro[1,8]naphthylidin-4-one-3-carboxamide] | 43 | 70 |
| CC(=O)N[C@H]1CC[C@H](n2cc(C(=O)Nc3c(Cl)cncc3Cl)c(=O)c3cccnc32)CC1 [Example 70, N-(3,5-dichloropyridin-4-yl)-1-[trans-4-(acetylamino)cyclohexyl]-1,4-dihydro[1,8]naphthylidin-4-one-3-carboxamide] | 3.9 | – |
| O=C(NC1CCCC1)c1cn([C@H]2CC[C@H](O)CC2)c2ncccc2c1=O [Example 168, N-cyclopentyl-1-(trans-4-hydroxycyclohexyl)-1,4-dihydro[1,8]naphthylidin-4-one-3-carboxamide] | 1500 | – |
| CC(=O)O[C@H]1CC[C@@H](n2cc(C(=O)Nc3c(Cl)cncc3Cl)c(=O)c3cccnc32)CC1 [Example 118] | 1.3 | – |
| CS(=O)(=O)N[C@H]1CC[C@H](n2cc(C(=O)Nc3c(Cl)cncc3Cl)c(=O)c3cccnc32)CC1 [Example 72, N-(3,5-dichloropyridin-4-yl)-1-[trans-4-(methanesulfonylamino)cyclohexyl]-1,4-dihydro[1,8]naphthylidin-4-one-3-carboxamide] | 110 | – |
